Data: the supplement of paper PMC10307832

Columns and labels:
Experiment in all cases: relative viability (nuclei count vs DMSO), 5 days (fraction); higher = more cells survive
CAL-12T = system: CAL-12T
Summary of the method: (§1)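 Dosing by pin tool came one day after lung cancer cell lines were seeded in 1536-well plates, using either one drug or a fixed anchor-drug dose plus five library-drug doses (not always all listed) in √10 steps. After 5 days, nuclei were counted on 4× images. Relative viability is treated-well nuclei count divided by vehicle-well nuclei count, and values are medians of duplicate plates.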

NCI-H2228 = system: NCI-H2228
Summary of the method: as §1

UMC-11 = system: UMC-11
Summary of the method: as §1

LC-2-ad = system: LC-2-ad
Summary of the method: as §1

NCI-H2405 = system: NCI-H2405
Summary of the method: as §1

LOU-NH91 = system: LOU-NH91
Summary of the method: as §1

HCC-78 = system: HCC-78
Summary of the method: as §1

NCI-H2170 = system: NCI-H2170
Summary of the method: as §1

NCI-H3122 = system: NCI-H3122
Summary of the method: as §1

ABC-1 = system: ABC-1
Summary of the method: as §1

NCI-H1395 = system: NCI-H1395
Summary of the method: as §1

ChaGo-K-1 = system: ChaGo-K-1
Summary of the method: as §1

NCI-H2087 = system: NCI-H2087
Summary of the method: as §1

NCI-H1793 = system: NCI-H1793
Summary of the method: as §1

NCI-H460 = system: NCI-H460
Summary of the method: as §1

NCI-H1651 = system: NCI-H1651
Summary of the method: as §1

RERF-LC-KJ = system: RERF-LC-KJ
Summary of the method: as §1

LU99A = system: LU99A
Summary of the method: as §1

NCI-H1755 = system: NCI-H1755
Summary of the method: as §1

NCI-H1944 = system: NCI-H1944
Summary of the method: as §1

HCC-366 = system: HCC-366
Summary of the method: as §1

PC-3 [JPC-3] = system: PC-3 [JPC-3]
Summary of the method: as §1

## Cc1sc2c(c1C)C(c1ccc(Cl)cc1)=N[C@@H](CC(=O)OC(C)(C)C)c1nnc(C)n1-2 [JQ1] + N=C(N)NC(=N)NCCc1ccccc1 [Phenformin] (partner 250 µM)
CAL-12T; first compound 0.04 µM
  relative viability: 0.522
CAL-12T; first compound 0.1265 µM
  relative viability: 0.443
CAL-12T; first compound 0.4 µM
  relative viability: 0.42
CAL-12T; first compound 1.265 µM
  relative viability: 0.253
CAL-12T; first compound 4 µM
  relative viability: 0.284
NCI-H2228; first compound 0.04 µM
  relative viability: 0.305
NCI-H2228; first compound 0.1265 µM
  relative viability: 0.275
NCI-H2228; first compound 0.4 µM
  relative viability: 0.297
NCI-H2228; first compound 1.265 µM
  relative viability: 0.181
NCI-H2228; first compound 4 µM
  relative viability: 0.207
UMC-11; first compound 0.04 µM
  relative viability: 0.29
UMC-11; first compound 0.1265 µM
  relative viability: 0.211
UMC-11; first compound 0.4 µM
  relative viability: 0.231
UMC-11; first compound 1.265 µM
  relative viability: 0.224
UMC-11; first compound 4 µM
  relative viability: 0.195
LC-2-ad; first compound 0.04 µM
  relative viability: 0.537
LC-2-ad; first compound 0.1265 µM
  relative viability: 0.468
LC-2-ad; first compound 0.4 µM
  relative viability: 0.401
LC-2-ad; first compound 1.265 µM
  relative viability: 0.222
LC-2-ad; first compound 4 µM
  relative viability: 0.294
NCI-H2405; first compound 0.04 µM
  relative viability: 0.381
NCI-H2405; first compound 0.1265 µM
  relative viability: 0.224
NCI-H2405; first compound 0.4 µM
  relative viability: 0.385
NCI-H2405; first compound 1.265 µM
  relative viability: 0.239
NCI-H2405; first compound 4 µM
  relative viability: 0.223
LOU-NH91; first compound 0.04 µM
  relative viability: 0.735
LOU-NH91; first compound 0.1265 µM
  relative viability: 0.555
LOU-NH91; first compound 0.4 µM
  relative viability: 0.384
LOU-NH91; first compound 1.265 µM
  relative viability: 0.328
LOU-NH91; first compound 4 µM
  relative viability: 0.326
HCC-78; first compound 0.04 µM
  relative viability: 0.727
HCC-78; first compound 0.1265 µM
  relative viability: 0.657
HCC-78; first compound 0.4 µM
  relative viability: 0.727
HCC-78; first compound 1.265 µM
  relative viability: 0.515
HCC-78; first compound 4 µM
  relative viability: 0.435
NCI-H2170; first compound 0.04 µM
  relative viability: 0.408
NCI-H2170; first compound 0.1265 µM
  relative viability: 0.394
NCI-H2170; first compound 0.4 µM
  relative viability: 0.402
NCI-H2170; first compound 1.265 µM
  relative viability: 0.354
NCI-H2170; first compound 4 µM
  relative viability: 0.315
NCI-H3122; first compound 0.04 µM
  relative viability: 0.362
NCI-H3122; first compound 0.4 µM
  relative viability: 0.377
NCI-H3122; first compound 1.265 µM
  relative viability: 0.313
NCI-H3122; first compound 4 µM
  relative viability: 0.264
ABC-1; first compound 0.04 µM
  relative viability: 0.238
ABC-1; first compound 0.1265 µM
  relative viability: 0.282
ABC-1; first compound 0.4 µM
  relative viability: 0.225
ABC-1; first compound 1.265 µM
  relative viability: 0.227
ABC-1; first compound 4 µM
  relative viability: 0.232
NCI-H1395; first compound 0.04 µM
  relative viability: 0.439
NCI-H1395; first compound 0.1265 µM
  relative viability: 0.417
NCI-H1395; first compound 0.4 µM
  relative viability: 0.478
NCI-H1395; first compound 1.265 µM
  relative viability: 0.455
NCI-H1395; first compound 4 µM
  relative viability: 0.396
ChaGo-K-1; first compound 0.04 µM
  relative viability: 0.436
ChaGo-K-1; first compound 0.1265 µM
  relative viability: 0.495
ChaGo-K-1; first compound 0.4 µM
  relative viability: 0.401
ChaGo-K-1; first compound 1.265 µM
  relative viability: 0.324
ChaGo-K-1; first compound 4 µM
  relative viability: 0.286
NCI-H2087; first compound 0.04 µM
  relative viability: 0.52
NCI-H2087; first compound 0.1265 µM
  relative viability: 0.406
NCI-H2087; first compound 0.4 µM
  relative viability: 0.406
NCI-H2087; first compound 1.265 µM
  relative viability: 0.266
NCI-H2087; first compound 4 µM
  relative viability: 0.273
NCI-H1793; first compound 0.04 µM
  relative viability: 0.315
NCI-H1793; first compound 0.1265 µM
  relative viability: 0.382
NCI-H1793; first compound 0.4 µM
  relative viability: 0.35
NCI-H1793; first compound 1.265 µM
  relative viability: 0.274
NCI-H1793; first compound 4 µM
  relative viability: 0.378
NCI-H460; first compound 0.04 µM
  relative viability: 0.503
NCI-H460; first compound 0.1265 µM
  relative viability: 0.271
NCI-H460; first compound 0.4 µM
  relative viability: 0.123
NCI-H460; first compound 1.265 µM
  relative viability: 0.0422
NCI-H460; first compound 4 µM
  relative viability: 0.041
NCI-H1651; first compound 0.04 µM
  relative viability: 0.265
NCI-H1651; first compound 0.1265 µM
  relative viability: 0.249
NCI-H1651; first compound 0.4 µM
  relative viability: 0.305
NCI-H1651; first compound 1.265 µM
  relative viability: 0.245
NCI-H1651; first compound 4 µM
  relative viability: 0.241
RERF-LC-KJ; first compound 0.04 µM
  relative viability: 0.402
RERF-LC-KJ; first compound 0.1265 µM
  relative viability: 0.374
RERF-LC-KJ; first compound 0.4 µM
  relative viability: 0.324
RERF-LC-KJ; first compound 1.265 µM
  relative viability: 0.316
RERF-LC-KJ; first compound 4 µM
  relative viability: 0.292
LU99A; first compound 0.04 µM
  relative viability: 0.776
LU99A; first compound 0.1265 µM
  relative viability: 0.35
LU99A; first compound 0.4 µM
  relative viability: 0.734
LU99A; first compound 1.265 µM
  relative viability: 0.303
LU99A; first compound 4 µM
  relative viability: 0.26
NCI-H1755; first compound 0.04 µM
  relative viability: 0.687
NCI-H1755; first compound 0.1265 µM
  relative viability: 0.501
NCI-H1755; first compound 0.4 µM
  relative viability: 0.506
NCI-H1755; first compound 1.265 µM
  relative viability: 0.462
NCI-H1755; first compound 4 µM
  relative viability: 0.419
NCI-H1944; first compound 0.04 µM
  relative viability: 0.195
NCI-H1944; first compound 0.1265 µM
  relative viability: 0.174
NCI-H1944; first compound 0.4 µM
  relative viability: 0.191
NCI-H1944; first compound 1.265 µM
  relative viability: 0.149
NCI-H1944; first compound 4 µM
  relative viability: 0.182
HCC-366; first compound 0.04 µM
  relative viability: 0.699
HCC-366; first compound 0.4 µM
  relative viability: 0.614
HCC-366; first compound 1.265 µM
  relative viability: 0.412
HCC-366; first compound 4 µM
  relative viability: 0.376
PC-3 [JPC-3]; first compound 0.04 µM
  relative viability: 0.466
PC-3 [JPC-3]; first compound 0.1265 µM
  relative viability: 0.474
PC-3 [JPC-3]; first compound 0.4 µM
  relative viability: 0.46
PC-3 [JPC-3]; first compound 1.265 µM
  relative viability: 0.461
PC-3 [JPC-3]; first compound 4 µM
  relative viability: 0.376
